Experimental data as given in patent US20250041307A1, “Uses of Bicyclic Compounds for the Treatment of Diseases” (Athira Pharma, Inc., priority 2021, published 2025).

Columns and labels:
Type in all cases: cell-based
HGF/MET system = assay: Phospho-MET ELISA; set-up: key: − indicates that the compound failed to significantly augment MET phosphorylation; + indicates maximum potency at or above 100 nM; ++ indicates maximum potency at or above 10 nM; +++ indicates maximum potency at or above 1 nM; ++++ indicates maximum potency at or above 0.1 nM; settings: HEK293 cells; with 1 ng/mL recombinant HGF; 15 minutes; augmentation of MET phosphorylation (pMET ELISA)
Method: Compounds were screened for potency towards the HGF/MET system using phospho-MET (pMET) ELISA kits (Cell Signaling). pMET levels were detected in samples having low (1 ng/mL) and high (10 ng/mL) concentrations of HGF.
HEK293 cells were prepared by passage into 6-well multi-plates and grown at 37° C. at 5% CO2 in DMEM+10% FBS until approximately 90% confluent. Cells were then starved for at least 8 hours in serum-free growth media.
Exemplary compounds were prepared in DMEM+0.1% FBS, diluted and added to treatment media with 1 ng/mL recombinant HGF protein (R&D Systems). Cells were incubated in triplicate at 37° C. and 5% CO2 for 15 minutes. Samples were then treated with 180 μL ice-cold RIPA (radioimmunoprecipitation assay) buffer and cells were lysed on ice for 15 minutes. Lysates were cleared by centrifugation at 16,000-g for 15 minutes and the supernatant was retained. Samples were normalized using a BCA assay of lysates to determine protein concentrations across the samples.
Between 50 and 100 μg total protein lysate was loaded into ELISA wells in pMET Sandwich ELISA kit (Cell Signaling Catalog #7227C), ensuring equal protein load in each well. The ELISA was processed according to manufacturer's instructions. After color developed, absorbance was read on an optical plate reader at 450 nm.
Potency measurements were determined using peak efficacy by scaling test compound dose treatments along a scale of 1-10 between 1 ng/mL and 10 ng/mL HGF doses according to the following formula: […]
where y is the normalized data-point, x is the raw data point, A is the mean HGF at 1 ng/mL, and B is the mean HGF at 10 ng/mL.

MDCK cells = assay: Cell scattering behavior assay; set-up: key: − indicates that the compound failed to significantly promote cell scattering behavior; + indicates maximum potency at or above 100 nM; ++ indicates maximum potency at or above 10 nM; +++ indicates maximum potency at or above 1 nM; ++++ indicates maximum potency at or above 0.1 nM; settings: with 5 ng/mL HGF, 24 hours, normalized particle count compared to HGF treatment alone
Method: MDCK cells were grown under normal conditions and observed to spontaneously form tight colonies as they proliferate. MDCK cells respond to HGF treatment by moving away from each other (scattering), which is quantified to assess the amount of HGF/MET activation in the cell population. In this experiment, MDCK cells were plated in a 96-well format, treated with HGF and exemplary compounds, fluorescently stained, imaged in large fields, and scattering behavior was quantified. Quantification was determined by analyzing the number of continuous groups of cells compared to the total stained area imaged (normalized particle counts).
MDCK cells were plated at low density in black-walled imaging plates and allowed to attach overnight at 37° C. and 5% CO2 in DMEM+10% FBS. Cells were then starved to 2 hours in DMEM without FBS (“starve media”). Samples containing exemplary compounds were prepared in DMEM without FBS and included 5 ng/mL HGF protein (“treatment media”). A control curve was also prepared for each plate using HGF concentrations of 0, 5, 10, and 20 ng/mL. Starve media was replaced with treatment media and cells were incubated for 24 hours at 37° C. and 5% CO2.
After incubation, cells were fixed by replacing treatment media with cold ethanol and incubating for 20 minutes at 4° C. Cells were then rehydrated by washing with PBS and then with stain solution (fluorescent wheat germ agglutinin; WGA488 at 20 μg/mL in PBS). Cells were incubated with stain solution 30 minutes at room temperature after which stain solution was replaced with fresh PBS.
Fields of cells were imaged using an iCyte high content imager in the green wavelength. Images were converted to binary and analyzed for particle size and particle count. For the purpose of analysis, an individual cell touching no other cells or separated colonies of cells were identified as particles, and particle counts were normalized by the total signal area to account for differences in cell number. […] Compound potency was assessed by statistical increase in normalized particle count compared to HGF treatment alone.

[1] = tested on: Rat primary cortical neuron cultures; assay: Protection from neurotoxicity in vitro (Cell Titer-Glo viability); settings: 24 hours, with HGF 5 ng/ml
Method: HGF/MET signaling activation is expected to protect cells, including neurons, from cell death. […] Hydrogen peroxide (H2O2) treatment produces toxic oxidative stress. Bacteria-derived lipopolysaccharide (LPS) treatment induces inflammatory cell death. Treatment with excess glutamate (Glut) produces excitotoxicity in neuron cultures. Treatment with 1-methyl-4-phenylpyridinium (MPP^+) causes cell death by inhibition of mitochondrial function.
Rat primary cortical neuron cultures were grown at 37° C., 5% CO2 in Complete Neurobasal Medium supplemented with B27/GDNF/BDNF containing 10% FBS until maturity and were then seeded in 384-well plate at 5,000 cells/well. Cultures were then treated for 15 minutes with 1 uM, 100 nM, 10 nM, 1 nM, or 0.1 nM of compound 1a. Cells were then subjected to individual conditional insults for 24 hours at the following concentrations: H2O2 at 1 uM, LPS at 1 uM, glutamate at 25 uM, MPP+ at 500 uM. All treatments contained recombinant human HGF (R&D Systems) at a concentration of 5 ng/ml.
To quantify neuroprotection, cell viability was measured with the Cell Titer-Glo Luminescent Cell Viability Assay (Promega, Cat #G7571). Data was normalized to DMSO+HGF control set at 100% cell viability. Statistical analyses for each group (n=4) were performed using one-way ANOVA with Tukey's Multiple comparison test.
Data is reported as statistical significance vs. insult control, with NS=not significant, +=p<0.05, ++=p<0.01, and +++=p<0.001.

Row | SMILES | Potency (HGF/MET system) | Potency (MDCK cells) | Insult effect (% viability vs vehicle) ([1]; 1 uM) [%] | Insult effect (% viability vs vehicle) ([1]; 25 uM) [%]
1 | CCC(C)CN1CC2N(C(=O)c3ccc(Cl)cc3)CCC(=O)N2C(C)C1=O (stereo not shown) [Compound 10, 1-(4-chlorobenzoyl)-6-methyl-8-(2-methylbutyl)hexahydro-4H-pyrazino[1,2-a]pyrimidine-4,7(6H)-dione] | − | − |  | 
2 | CC1C(=O)N(CC2CCCC2)CC2N(C(=O)c3ccc(OC(F)F)cc3)CCC(=O)N12 (stereo not shown) [Compound 13] | − | − |  | 
3 | CC1C(=O)N(CC2CCCC2)CC2N(C(=O)c3ccc(C(F)(F)F)cc3)CCC(=O)N12 (stereo not shown) [Compound 15] | − | − |  | 
4 | CC1C(=O)N(CC2CCC2)CC2N(C(=O)c3ccc(C(F)(F)F)cc3)CCC(=O)N12 (stereo not shown) [Compound 16] | − | − |  | 
5 | C=CCCN1CC2N(C(=O)c3ccc(OC(F)F)cc3)CCC(=O)N2C(C)C1=O (stereo not shown) [Compound 18] | − | − |  | 
6 | CCCCN1CC2N(C(=O)c3ccc(C(F)(F)F)cc3)CCC(=O)N2C(C)C1=O (stereo not shown) [Compound 21] | − | − |  | 
7 | CC(C)CN1CC2N(C(=O)c3ccc(C(F)(F)F)cc3)CCC(=O)N2C(C)C1=O (stereo not shown) [Compound 23] | − | − |  | 
8 | CC(C)N1CC2N(C(=O)c3ccc(C(F)(F)F)cc3)CCC(=O)N2C(C)C1=O (stereo not shown) [Compound 24] | − | − |  | 
9 | CC1C(=O)N(CCc2ccco2)CC2N(C(=O)c3ccc(OC(F)F)cc3)CCC(=O)N12 (stereo not shown) [Compound 25] | − | − |  | 
10 | CC1C(=O)N(CCc2cccs2)CC2N(C(=O)c3ccc(OC(F)F)cc3)CCC(=O)N12 (stereo not shown) [Compound 26] | − | − |  | 
11 | CC1C(=O)N(CC2CCCO2)CC2N(C(=O)c3ccc(OC(F)F)cc3)CCC(=O)N12 (stereo not shown) [Compound 27] | − |  |  | 
12 | CC1C(=O)N(CCc2ccccc2)CC2N(C(=O)c3ccc(OC(F)F)cc3)CCC(=O)N12 (stereo not shown) [Compound 28] | − | − |  | 
13 | CC1C(=O)N(CCc2ccncc2)CC2N(C(=O)c3ccc(OC(F)F)cc3)CCC(=O)N12 (stereo not shown) [Compound 29] | − |  |  | 
14 | CC1C(=O)N(CCC2CC2)CC2N(C(=O)c3ccc(OC(F)F)cc3)CCC(=O)N12 (stereo not shown) [Compound 31] | − | − |  | 
15 | COCCN1CC2N(C(=O)c3ccc(OC(F)F)cc3)CCC(=O)N2C(C)C1=O (stereo not shown) [Compound 32] | − | − |  | 
16 | COCCCN1CC2N(C(=O)c3ccc(OC(F)F)cc3)CCC(=O)N2C(C)C1=O (stereo not shown) [Compound 33] | − | − |  | 

Row | SMILES | Potency (HGF/MET system) | Potency (MDCK cells) | Insult effect (% viability vs vehicle) ([1]; 1 uM) [%] | Insult effect (% viability vs vehicle) ([1]; 25 uM) [%]
17 | CC1C(=O)N(CCO)CC2N(C(=O)c3ccc(OC(F)F)cc3)CCC(=O)N12 (stereo not shown) [Compound 34, 1-(4-(difluoromethoxy)benzoyl)-8-(2-hydroxyethyl)-6-methylhexahydro-4H-pyrazino[1,2-a]pyrimidine-4,7(6H)-dione] | − | − |  | 
18 | CC1C(=O)N(CCN)CC2N(C(=O)c3ccc(OC(F)F)cc3)CCC(=O)N12 (stereo not shown) [Compound 35, 8-(2-aminoethyl)-1-(4-(difluoromethoxy)benzoyl)-6-methylhexahydro-4H-pyrazino[1,2-a]pyrimidine-4,7(6H)-dione] | − | − |  | 
19 | CC1C(=O)N(CCS(C)(=O)=O)CC2N(C(=O)c3ccc(OC(F)F)cc3)CCC(=O)N12 (stereo not shown) [Compound 36] | − | − |  | 
20 | CC1C(=O)N(CCC2CCCC2)CC2N(Cc3ccc(OC(F)F)cc3)CCC(=O)N12 (stereo not shown) [Compound 38] | − |  |  | 
21 | C=CCCN1CC2N(Cc3ccc(OC(F)F)cc3)CCC(=O)N2C(C)C1=O (stereo not shown) [Compound 39] | − | − |  | 
22 | CC1C(=O)N(CCC2CCC2)CC2N(Cc3ccc(OC(F)F)cc3)CCC(=O)N12 (stereo not shown) [Compound 40] | − |  |  | 
23 | CCCCN1CC2N(Cc3ccc(OC(F)F)cc3)CCC(=O)N2C(C)C1=O (stereo not shown) [Compound 41] | − | − |  | 
24 | CCC(C)CN1CC2N(Cc3ccc(C(F)(F)F)c(Cl)c3)CCC(=O)N2C(C)C1=O (stereo not shown) [Compound 43] | − | − |  | 
25 | CCC(C)CN1CC2N(Cc3c[nH]c4ccccc34)CCC(=O)N2C(C)C1=O (stereo not shown) [Compound 44] | − | − |  | 
26 | CC1C(=O)N(CCC2CCC2)CC2N(Cc3ccc(F)cc3)CCC(=O)N12 (stereo not shown) [Compound 45, 8-(2-cyclobutylethyl)-1-(4-fluorobenzyl)-6-methylhexahydro-4H-pyrazino[1,2-a]pyrimidine-4,7(6H)-dione] | − |  |  | 
27 | CC1C(=O)N(CCC2CCCC2)CC2N(Cc3ccc(F)cc3)CCC(=O)N12 (stereo not shown) [Compound 46, 8-(2-cyclopentylethyl)-1-(4-fluorobenzyl)-6-methylhexahydro-4H-pyrazino[1,2-a]pyrimidine-4,7(6H)-dione] | − | − |  | 
28 | CCC(C)CN1CC2N(Cc3ccc(OC(F)F)cc3)CCC(=O)N2C(CF)C1=O (stereo not shown) [Compound 47, 1-(4-(difluoromethoxy)benzyl)-6-(fluoromethyl)-8-(2-methylbutyl)hexahydro-4H-pyrazino[1,2-a]pyrimidine-4,7(6H)-dione] | − |  |  | 
29 | CCC(C)CN1CC2N(Cc3ccc(C(F)(F)F)cc3)CCC(=O)N2C(CF)C1=O (stereo not shown) [Compound 48, 6-(fluoromethyl)-8-(2-methylbutyl)-1-(4-(trifluoromethyl)benzyl)hexahydro-4H-pyrazino[1,2-a]pyrimidine-4,7(6H)-dione] | − |  |  | 
30 | CCC(C)CN1CC2N(Cc3ccc(OC(F)F)cc3)CCC(=O)N2C(CC(N)=O)C1=O (stereo not shown) [Compound 50, 2-(1-(4-(difluoromethoxy)benzyl)-8-(2-methylbutyl)-4,7-dioxooctahydro-2H-pyrazino[1,2-a]pyrimidin-6-yl)acetamide] | − | − |  | 
31 | OO [Compound H2O2, Hydrogen peroxide, reference compound] |  |  | 64.23 | 
32 | N[C@@H](CCC(=O)O)C(=O)O [Glutamate, glutamate, reference compound] |  |  |  | 49.55
